By IC50 is commonly meant the midpoint of a concentration-inhibition curve. A word on the amount remaining: it is the share of the starting amount still present when the sample was taken. By Cmax is commonly meant the maximum level reached in the sampled fluid or tissue. As a reminder, the Tmax is the time from dosing to the highest level. The half-life is the time in which the quantity being followed falls by half. By kinetic solubility is commonly meant the concentration staying in solution when a stock, usually in DMSO, is diluted into the medium.

These results are taken from paper PMC7718273 (Scientific Reports, 2020).

One series deals with T1, hERG (Homo sapiens, UniProt Q12809).
T1 construct: purchased Invitrogen; host or cells: membrane preparation of the kit
As to the kind of experiment: hERG binding assay based on fluorescence polarization. As to the method: Predictor hERG Assay test kits were obtained from Invitrogen (Carlsbad, CA). The binding assay was carried out according to the manufacturer’s instructions. […] Working Tracer solution (5 μL) was then added and the plate was allowed to incubate at room temperature for at least 1 h, and then fluorescence polarization was measured using the Synergy 4 Hybrid Microplate Reader from BioTek Instruments (Winooski, VT) with 530/25 excitation and 590/35 emission filters along with a 570 nm cut off dichroic mirror. Polarization values were calculated automatically using Gen Data Analysis Software (BioTek Instruments). The above protocol is described in detail in the Invitrogen’s application note.
Background: The hERG channel carries a current that helps repolarise heart muscle cells.

In a further series the target is T2, DPP9 (Homo sapiens, UniProt Q86TI2).
T2 construct: purchased R&D Systems 5419-SE
As to the kind of experiment: DPP9 activity, fluorometric assay with AMC substrate. In kind it is biochemical. To be noted: fluorometric assay using AMC substrates. As to the method: (§1) Recombinant human PREP (hPREP) (catalog no. 4308-SE), hDPP2/7 (catalog no. 3438-SE), hDPP9 (catalog no. 5419-SE), hFAP (catalog no. 3715-SE), and hDPP4 (catalog no. 9168-SE) proteins were from R&D Systems (Minneapolis, MN). Human FGF21 (catalog no. CRF159C) was from Cell Science (Newburyport, MA).
(§2) FAP enzyme activities were assayed in 20 mM Tris/HCl, 0.1 M NaCl, 1 mM EDTA (pH 8.0) in the presence of 40 μM Suc-Gly-Pro-Leu-Gly-Pro-AMC (#I-1350.0100, BACHEM, Bubendorf, Switzerland) and hFAP in a total volume of 100 µL. […] The inhibitor concentrations ranged from 100 μM to 0.03 nM, and its IC50 values were computed with commercially available curve-fitting programs such as the SigmaPlot. Other protease activities were determined in a similar manner.

Another series has as its target T3, DPP4 (Homo sapiens, UniProt P27487).
T3 construct: purchased R&D Systems 9168-SE
As to the kind of experiment: DPP4 activity, fluorometric assay with AMC substrate. To be noted: fluorometric assay using AMC substrates. In kind it is biochemical. Here is the method:
as §1, §2

Series [1] is described as follows: Microsomal stability, rat. Format: in vitro ADME. To be noted: liver microsomes, pH 7.4, rat (R), 0.5 mg/mL, NADPH, read-out: Microsomal stability (% remaining at 60 min). As to the method: (§3) Aliquots were then transferred in duplicate to: (i) a final concentration plate that was immediately quenched with 23.6 ng/mL internal standard (IS, chlorpropamide) in acetonitrile (ACN) or (ii) tubes, which were centrifuged for 5 min at 4℃ (14,000 rpm). The samples were subjected to LC–MS/MS analysis on an AB Sciex 4000 Q Trap hybrid triple quadrupole linear ion-trap MS (AB Sciex, Framingham, MA) coupled to an Agilent 1200 HPLC (Agilent Tech. Santa Clara, CA) with a reverse-phase Kinetex XB-C18 column (2.1 × 100 mm, 2.6 µm; Phenomenex). Mobile phases were comprised of 0.1% formic acid (FA) in water (A) and 0.1 FA in ACN (B). Data analysis was performed using […] (Ver. 1.6.1).
(In general: Liver microsomes are a subcellular fraction often used to study metabolism.)

The next series deals with FAP. As to the kind of experiment: In vivo study using cynomolgus monkeys: plasma FAP activity. To be noted: 50 mg/kg intranasal. The arrangement: species or system cynomolgus monkey.
The nature of series [2]: Microsomal stability, mouse. Format: in vitro ADME. To be noted: liver microsomes, pH 7.4, mouse (M), 0.5 mg/mL, NADPH, read-out: Microsomal stability (% remaining at 60 min). Here is the method:
as §3

A short description of series [3]: Pharmacokinetic study in rats. In kind it is in vivo. To be noted: male, Sprague-Dawley, plasma, rat, oral 10 mg/kg. The source says:
Six male Sprague–Dawley rats (7-week-old, 240–250 g) were obtained from Orient Bio INC. (Seongnam, Gyeonggi-do, Korea) and maintained at 22℃ on a 12-h light/12-h dark cycle with free access to water. All animals were maintained under such conditions for a minimum of 2 weeks prior to initiation of the studies. […] Plasma sample preparations and analysis were the same as described in mice study.

The next series deals with serum FAP (Macaca fascicularis, UniProt A0A2K5VGH4). As to the kind of experiment: IC50 on serum FAP, monkeys. In kind it is biochemical. To be noted: read-out: Serum FAP IC50 (nM): Monkey.
Another series concerns the target T4, hFAP (Homo sapiens, UniProt Q12884).
T4 construct: purchased R&D Systems 3715-SE
As to the kind of experiment: FAP enzyme activity, fluorometric assay with AMC substrate. In kind it is biochemical. Here is the method:
as §1, §2

A short description of a further series: Plasma stability, human. In kind it is in vitro ADME. To be noted: pH 7.4, read-out: Plasma stability (% remaining at 60 min). As to the method:
as §3

A short description of another series: Plasma stability, rat. Format: in vitro ADME. To be noted: pH 7.4, rat (R), read-out: Plasma stability (% remaining at 60 min). Here is the method:
as §3

The nature of a further series: Kinetic solubility. In kind it is physicochemical. The conditions noted are these: 22 °C, kinetic from dmso stock. Here is the method: Kinetic solubility was conducted as described. […] The samples were agitated for 2 h using a plate shaker (500 rpm, 22℃). Approximately 150 µL of the resulting supernatant was transferred to a 96-well analysis plate and the calibration and test samples were analyzed by HPLC with a diode array detector (Agilent 1200 HPLC) comprising a reverse-phase Kinetex XB-C18 column (2.1 × 100 mm, 2.6 µm; Phenomenex). Mobile phases were composed of 0.1% FA in water (A) and 0.1% FA in ACN (B).

The test system of a further series is T5, recombinant human FAP.
T5 construct: purchased R&D Systems 3715-SE
As to the kind of experiment: FAP-mediated cleavage of hFGF21 in cell-free system (SDS-PAGE/immunoblot). In kind it is biochemical. To be noted: hFGF21 200 nM, hFAP 50 nM, SDS-PAGE. In general terms: A western blot detects proteins with antibodies after separation by electrophoresis.

Series [4] has as its system Normal cynomolgus monkeys. As to the kind of experiment: In vivo study using cynomolgus monkeys: plasma concentration and intact FGF21. The conditions noted are these: cynomolgus monkeys (n = 3), 50 mg/kg intranasal, range of individual animals.
Description: Intact FGF21 levels in plasma were measured by ELISA.
FAP activity and intact FGF21 concentrations were measured as described above.

≈ marks a conversion by molar mass, not a printed value. Where “and” joins values, the source holds several entries; their conditions need not be identical. Identical values can stand only once. Like-named read-outs stand apart in the source and are kept apart here.

T4 sequence (Q12884 whole entry): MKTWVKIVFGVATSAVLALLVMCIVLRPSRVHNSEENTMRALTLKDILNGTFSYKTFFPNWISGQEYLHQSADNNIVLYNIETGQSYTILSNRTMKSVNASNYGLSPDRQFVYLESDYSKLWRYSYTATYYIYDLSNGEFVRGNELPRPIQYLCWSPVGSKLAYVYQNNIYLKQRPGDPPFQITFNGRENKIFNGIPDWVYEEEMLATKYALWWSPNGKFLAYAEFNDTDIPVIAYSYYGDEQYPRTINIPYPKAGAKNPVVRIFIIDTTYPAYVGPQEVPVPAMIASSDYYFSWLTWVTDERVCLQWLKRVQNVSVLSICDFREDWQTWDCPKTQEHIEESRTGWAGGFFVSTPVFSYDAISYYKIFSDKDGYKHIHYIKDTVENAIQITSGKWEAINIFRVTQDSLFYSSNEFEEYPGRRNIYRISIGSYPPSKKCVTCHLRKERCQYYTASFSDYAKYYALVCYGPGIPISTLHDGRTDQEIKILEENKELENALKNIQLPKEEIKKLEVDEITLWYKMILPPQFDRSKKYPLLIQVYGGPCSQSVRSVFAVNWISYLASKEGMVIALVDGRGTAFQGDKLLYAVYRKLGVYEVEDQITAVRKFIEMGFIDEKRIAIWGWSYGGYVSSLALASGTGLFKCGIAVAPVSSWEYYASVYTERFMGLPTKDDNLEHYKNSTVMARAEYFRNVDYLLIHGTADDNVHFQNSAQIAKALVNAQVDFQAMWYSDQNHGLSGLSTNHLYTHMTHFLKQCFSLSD
T2 sequence (Q86TI2 whole entry): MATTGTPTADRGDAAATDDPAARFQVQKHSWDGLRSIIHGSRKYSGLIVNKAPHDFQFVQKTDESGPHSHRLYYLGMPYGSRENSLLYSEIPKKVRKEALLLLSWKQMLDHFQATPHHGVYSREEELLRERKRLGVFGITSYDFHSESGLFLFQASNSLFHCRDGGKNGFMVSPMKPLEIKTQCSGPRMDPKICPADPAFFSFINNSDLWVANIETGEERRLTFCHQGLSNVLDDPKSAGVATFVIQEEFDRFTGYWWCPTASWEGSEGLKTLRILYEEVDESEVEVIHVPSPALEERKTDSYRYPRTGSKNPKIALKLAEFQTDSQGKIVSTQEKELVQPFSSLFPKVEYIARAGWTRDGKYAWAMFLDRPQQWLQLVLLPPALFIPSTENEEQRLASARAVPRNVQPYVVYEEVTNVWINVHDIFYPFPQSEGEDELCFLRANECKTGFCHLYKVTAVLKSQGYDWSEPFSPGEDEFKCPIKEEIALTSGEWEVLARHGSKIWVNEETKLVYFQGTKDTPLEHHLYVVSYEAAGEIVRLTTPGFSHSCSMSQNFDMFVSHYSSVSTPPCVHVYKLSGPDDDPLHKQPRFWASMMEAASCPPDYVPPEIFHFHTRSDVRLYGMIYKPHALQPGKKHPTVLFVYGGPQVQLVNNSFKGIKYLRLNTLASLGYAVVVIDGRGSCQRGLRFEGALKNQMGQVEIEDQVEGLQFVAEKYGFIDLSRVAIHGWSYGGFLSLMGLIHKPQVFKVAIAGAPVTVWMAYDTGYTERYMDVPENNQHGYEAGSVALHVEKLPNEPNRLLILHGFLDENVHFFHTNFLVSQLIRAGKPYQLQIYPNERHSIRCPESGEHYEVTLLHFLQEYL
T3 sequence (P27487 whole entry): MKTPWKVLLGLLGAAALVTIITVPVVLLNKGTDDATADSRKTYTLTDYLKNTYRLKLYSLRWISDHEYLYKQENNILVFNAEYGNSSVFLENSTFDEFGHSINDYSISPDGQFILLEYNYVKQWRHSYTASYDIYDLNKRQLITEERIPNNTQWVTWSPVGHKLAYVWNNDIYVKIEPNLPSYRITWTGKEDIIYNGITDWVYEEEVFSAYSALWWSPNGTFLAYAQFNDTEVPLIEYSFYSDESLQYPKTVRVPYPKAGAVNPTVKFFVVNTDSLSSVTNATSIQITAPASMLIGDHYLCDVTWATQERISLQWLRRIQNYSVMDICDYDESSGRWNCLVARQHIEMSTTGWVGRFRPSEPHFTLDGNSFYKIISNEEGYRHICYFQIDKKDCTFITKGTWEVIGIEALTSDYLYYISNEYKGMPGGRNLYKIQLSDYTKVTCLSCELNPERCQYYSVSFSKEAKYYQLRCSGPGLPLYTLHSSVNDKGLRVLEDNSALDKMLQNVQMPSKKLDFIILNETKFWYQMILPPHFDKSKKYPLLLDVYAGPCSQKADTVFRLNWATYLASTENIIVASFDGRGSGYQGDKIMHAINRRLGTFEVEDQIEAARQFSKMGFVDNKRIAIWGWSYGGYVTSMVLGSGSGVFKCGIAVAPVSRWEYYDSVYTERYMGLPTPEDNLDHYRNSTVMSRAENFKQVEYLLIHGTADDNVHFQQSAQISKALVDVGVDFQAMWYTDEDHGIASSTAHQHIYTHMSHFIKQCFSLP
T1 sequence (Q12809 whole entry): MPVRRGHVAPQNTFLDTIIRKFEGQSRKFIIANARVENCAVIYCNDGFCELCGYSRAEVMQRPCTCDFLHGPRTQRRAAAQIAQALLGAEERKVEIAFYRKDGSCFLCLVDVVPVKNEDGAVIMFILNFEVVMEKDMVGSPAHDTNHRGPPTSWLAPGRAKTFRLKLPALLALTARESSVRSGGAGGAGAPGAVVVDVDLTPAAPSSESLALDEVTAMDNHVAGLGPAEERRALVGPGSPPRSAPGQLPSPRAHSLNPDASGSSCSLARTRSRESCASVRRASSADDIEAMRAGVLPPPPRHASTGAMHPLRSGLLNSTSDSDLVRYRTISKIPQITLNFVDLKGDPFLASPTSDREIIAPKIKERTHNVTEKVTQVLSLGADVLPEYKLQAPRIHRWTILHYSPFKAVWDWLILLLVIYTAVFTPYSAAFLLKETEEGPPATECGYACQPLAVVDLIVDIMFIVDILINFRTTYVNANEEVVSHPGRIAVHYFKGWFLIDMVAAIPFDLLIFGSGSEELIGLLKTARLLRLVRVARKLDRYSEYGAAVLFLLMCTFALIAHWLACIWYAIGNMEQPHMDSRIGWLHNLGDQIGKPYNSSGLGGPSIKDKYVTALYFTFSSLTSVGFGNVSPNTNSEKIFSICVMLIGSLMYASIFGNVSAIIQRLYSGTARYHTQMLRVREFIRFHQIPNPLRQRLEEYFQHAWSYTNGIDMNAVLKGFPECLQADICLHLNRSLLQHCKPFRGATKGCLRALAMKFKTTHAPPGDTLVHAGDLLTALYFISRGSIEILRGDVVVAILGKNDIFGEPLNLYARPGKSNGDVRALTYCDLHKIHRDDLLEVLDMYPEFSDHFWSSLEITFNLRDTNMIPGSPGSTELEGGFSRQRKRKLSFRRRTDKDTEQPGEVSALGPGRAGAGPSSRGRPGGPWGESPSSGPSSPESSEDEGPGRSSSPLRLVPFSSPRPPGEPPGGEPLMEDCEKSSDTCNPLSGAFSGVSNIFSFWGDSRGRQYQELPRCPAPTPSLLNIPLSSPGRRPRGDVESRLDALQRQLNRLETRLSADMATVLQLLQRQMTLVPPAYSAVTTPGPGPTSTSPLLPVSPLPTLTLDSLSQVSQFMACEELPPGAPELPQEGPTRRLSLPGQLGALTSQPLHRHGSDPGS
serum FAP, sequence (A0A2K5VGH4 entry or part of it): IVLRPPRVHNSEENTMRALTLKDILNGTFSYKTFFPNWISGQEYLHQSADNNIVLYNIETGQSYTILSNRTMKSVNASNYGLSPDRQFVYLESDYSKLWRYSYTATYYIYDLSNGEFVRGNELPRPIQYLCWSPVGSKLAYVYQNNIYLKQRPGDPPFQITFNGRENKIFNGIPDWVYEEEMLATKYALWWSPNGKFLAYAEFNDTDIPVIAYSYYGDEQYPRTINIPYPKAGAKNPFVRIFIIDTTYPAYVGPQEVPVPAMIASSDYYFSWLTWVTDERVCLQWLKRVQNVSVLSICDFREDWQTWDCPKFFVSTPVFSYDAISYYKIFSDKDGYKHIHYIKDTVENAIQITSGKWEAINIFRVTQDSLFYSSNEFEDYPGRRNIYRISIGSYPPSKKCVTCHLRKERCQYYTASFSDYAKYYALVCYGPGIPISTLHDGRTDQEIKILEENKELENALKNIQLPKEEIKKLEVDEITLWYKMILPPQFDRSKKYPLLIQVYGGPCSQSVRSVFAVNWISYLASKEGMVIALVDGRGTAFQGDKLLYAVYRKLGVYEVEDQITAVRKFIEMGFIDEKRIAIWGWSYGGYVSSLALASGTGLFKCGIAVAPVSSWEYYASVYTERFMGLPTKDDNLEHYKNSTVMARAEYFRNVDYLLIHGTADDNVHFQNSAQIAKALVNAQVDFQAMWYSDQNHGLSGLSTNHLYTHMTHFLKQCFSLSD

Consider `N#Cc1ccc(Cc2nc(C(=O)NCC(=O)N3CC(F)(F)C[C@H]3C#N)cs2)cc1` [BR103354, (S)-N-(2-(2-cyano-4,4-difluoropyrrolidin-1-yl)-2-oxoethyl)-2-(4-cyanobenzyl)thiazole-4-carboxamide], for which the IC50 on hERG is over 788000 nM; on DPP9, 5040 nM; against DPP4, over 100000 nM; on serum FAP it was 27 nM; on hFAP (40 μM Suc-Gly-Pro-Leu-Gly-Pro-AMC, 60 min at 37 °C, read-out: IC50 (nM) FAP) it was 14 nM; at hFAP (various assays: SDS-PAGE shift, AMC-coupled substrate, serum samples from different species, read-out: IC50 values on FAP, all measurements), 10 to 30 nM. The share remaining at 1 h, 1 µM in [1] is 87%; in series [2], 98%; in the series “Plasma stability, human” it was over 100%; in the series “Plasma stability, rat” it was 79%. Moreover, the “inhibition of FAP activity, maximal” value in the series on FAP (cynomolgus monkeys (n = 3), range of individual animals) was 65–83%. In addition, the “time of maximal effect on FAP activity and intact FGF21” value with FAP (cynomolgus monkeys, 50 mg/kg) is 1 h and 2 h. This compound also displayed a Cmax in [3] of 4400 ng/mL. Besides, the time to peak (Tmax) in series [3] was 1.1 h. Also, the half-life in series [3] was 3.5 h. Further, the AUC(0-t) in series [3] (read-out: AUC(0–6 h)) was determined as 19700 ng·h/mL. Also, the kinetic solubility at 2 h is 81 µg/mL (≈ 195 µM) in the series “Kinetic solubility” (pH 3.5, aqueous buffer); 79 µg/mL (≈ 190 µM) in “Kinetic solubility” (simulated gastric fluid, pH 1.0); 78 µg/mL (≈ 188 µM) in “Kinetic solubility” (phosphate buffer, pH 7.4, aqueous buffer). Besides, in the series on recombinant human FAP, the “concentration from which FAP-mediated hFGF21 cleavage was inhibited” value is recorded as 0.4 µM. Also, in series [4], the “increase of intact FGF21, maximal” value is 1.5–3.5 fold.
